From patent US12678488B2, “Batch management method for improving farrowing rate or number of piglets born alive in swine” (priority 2024, dated 2026)
Entries after “also recorded” stand apart in the source; their conditions may differ. Marks after values point to notes of the source that are not given here.

How the values were obtained:
ICR female mice = test: Mouse batch farrowing with FTAI model: embryo implantation number, embryo spacing, number born alive; assay type: in vivo; conditions: for embryo spacing upon embryo implantation: compared with batch farrowing model group
Method: 6-8-week-old ICR female mice acclimatized to the laboratory mouse house environment and in a good condition were selected and divided into a batch farrowing with FTAI model group, a batch farrowing with FTAI+low-dose model group, and a batch farrowing with FTAI+high-dose model group, and 10IU PMSG was injected at 17:00 pm. At 6-8 hours after a single injection of PMSG to the batch farrowing with FTAI+low-dose model group and the batch farrowing with FTAI+high-dose model group, respectively, the groups were supplemented with a low dose of 1-[bis(4-cyanophenyl)methyl]-1,2,4-triazole (10 μg/kg·BW) and a high dose of 1-[bis(4-cyanophenyl)methyl]-1,2,4-triazole (50 μg/kg·BW), respectively, and at 46-48 hours after the injection of PMSG, the groups were then injected with prepared 10IU GnRH and then put into a breeding male mouse cage. At 7:00-9:00 the next morning, vaginal plugs were examined, and this day was recorded as day 1 (D1) of pregnancy. In the afternoon of day 5 (D5) of pregnancy, 0.4 ml of 1% Chicago blue-normal saline solution was injected into model mice at the caudal vein, and after 3 minutes of systemic circulation, the mice were sacrificed by means of cervical dislocation, the abdominal cavity was immediately cut open, and the abdominal aorta was cut for bleeding. Then, uteri and ovaries were removed with surgical ophthalmic scissors, immersed in physiological saline for washing, and then put into a 4% paraformaldehyde fixation solution for 5 minutes of morphological fixation. Blue dots on the uterus were recorded as embryo implantation sites, the number of implantation sites was counted, and patterns of embryo spacing in different groups were drawn.
For some of the mice treated above, no intermediate test was done, and after the mice gave birth, the number born alive in each group was counted.

[1] = system: Landrace x Large White binary sows; test: Pregnancy, farrowing rate, litter size and piglet index of gilts in batch farrowing with FTAI (Example 3); assay type: in vivo, pigs
Method: The term “farrowing rate”, as used herein, was calculated as the percentage of the number of farrowed sows divided by the number of mated gilts and sows.
For example, in the case of a certain batch of sows, the farrowing rate=the number of farrowing sows/the number of mated gilts and sows×100%.
The term “Piglet Index (PI)”, as used herein, refers to the total number of live piglets born per 100 gilts or sows that have been naturally mated or artificially inseminated. The calculation method is the average number of born alive per litter multiplied by the farrowing rate and then multiplied by the total gilts or sows (100).
The breed of the gilts used in this example was Landrace x Large White binary sows, the reserve sows were randomly divided into the following 4 groups, and the treatment method for each group was as follows:
batch farrowing with FTAI: the sows were fed with an altrenogest oral solution at 20 mg/gilt at the same time every day, for 18 days; PMSG at 1000 IU/gilt was injected intramuscularly 42 h after the last feeding with altrenogest, GnRH at 100 μg/gilt was further injected intramuscularly 80 h after the intramuscular injection of PMSG, a first timed insemination was performed 24 h after the injection of GnRH, and a second timed insemination was performed after 24 h.
Treatment group 1 (batch farrowing with FTAI, with supplementing with 1-[bis(4-cyanophenyl)methyl]-1,2,4-triazole (12 μg/kg·BW, orally once)): The hormone treatment and mating schemes for gilts were the same as those for gilts in the batch farrowing with FTAI. The gilts were administered orally once with 1-[bis(4-cyanophenyl)methyl]-1,2,4-triazole at 12 μg/kg·BW 8 h after the injection of PMSG.
Treatment group 2 (batch farrowing with FTAI, with supplementing with 1-[bis (4-cyanophenyl)methyl]-1,2,4-triazole (12 μg/kg·BW, orally twice)): The hormone treatment and mating schemes for gilts were the same as those for gilts in the batch farrowing with FTAI. The gilts were administered orally once with 1-[bis(4-cyanophenyl)methyl]-1,2,4-triazole at 12 μg/kg·BW 8 h after the injection of PMSG, and then orally once with 1-[bis(4-cyanophenyl)methyl]-1,2,4-triazole at 12 μg/kg·BW after another 24 h.
Treatment group 3 (batch farrowing with FTAI, supplemented with 1-[bis(4-cyanophenyl)methyl]-1,2,4-triazole (20 μg/kg·BW, orally in a single dose)): The hormone treatment and mating schemes for gilts were the same as those for gilts in the batch farrowing with FTAI. The gilts were administered orally once with 1-[bis(4-cyanophenyl)methyl]-1,2,4-triazole at 20 μg/kg·BW 8 h after the injection of PMSG.
The farrowing rate and piglet index of sows in the different treatment groups were calculated as follows:
wherein Piglet Index (PI), a comprehensive index to measure the overall reproductive performance of a sow population at present in production, refers to the number born alive from every 100 gilts or sows, who have undergone natural mating or artificial insemination.

[2] = system: ENPP2, LPAR3 and PTGS2 mRNA (LPA signalling pathway) in the uterus; test: Quantitative PCR of key molecules in the LPA signalling pathway in gilt uteri (Example 4); assay type: in vivo, pigs; conditions: gilts, 12 μg/kg·BW
Method: The gilts in the batch farrowing with FTAI and the gilts in the batch farrowing with FTAI supplementing once with 1-[bis(4-cyanophenyl)methyl]-1,2,4-triazole (12 μg/kg·BW) were slaughtered. The gilts were slaughtered 16 days after mating, with 4 gilts slaughtered per group. By judging the number of corpora lutea on the ovary, the number of ovulated oocytes (each corpus luteum represented an ovulation point) was confirmed.
Uteri were isolated from the gilts for RNA extraction, reverse transcription and quantitative PCR detection of several key molecules in the LPA signalling pathway, i.e., detection of ENPP2 (a gene for the expression of ATX, the key enzyme of LPA synthesis), LPAR3 (LPA receptor gene), and PTGS2 (a key gene downstream of LPAR).

[3] = low dose 10 μg/kg·BW, compared with batch farrowing with FTAI model group
[4] = Example 3, low-dose (treatment groups 1, 2, and 3), compared with batch farrowing with FTAI
[5] = Example 3, treatment group 1 (12 μg/kg·BW orally once), compared with batch farrowing with FTAI
[6] = Example 3, treatment groups 2 and 3
[7] = Example 3 Treatment group 1: 12 μg/kg·BW orally once, gilts
[8] = Example 3 Treatment group 2: 12 μg/kg·BW orally twice, 24 h apart, gilts
[9] = Example 3 Treatment group 3: 20 μg/kg·BW orally in a single dose, gilts

## N#Cc1ccc(C(c2ccc(C#N)cc2)n2cncn2)cc1 [1-[bis(4-cyanophenyl)methyl]-1,2,4-triazole]
ICR female mice; high dose 50 μg/kg·BW
  embryo spacing upon embryo implantation: no effect on increasing the embryo spacing; also recorded: could not alleviate the overcrowding of embryos
ICR female mice; high dose 50 μg/kg·BW, compared with batch farrowing with FTAI model group
  number born alive: reduced number born alive; also recorded: decreased number born alive
ICR female mice; low dose 10 μg/kg·BW
  embryo spacing upon embryo implantation: increased embryo spacing; also recorded: increase the spacing between embryos
ICR female mice; [3]
  embryo implantation number: no significant effect; also recorded: no significant difference
  number born alive: significantly increase the number born alive
[1]; Example 3, 20 μg/kg·BW group compared with 12 μg/kg·BW group
  estrus rate: slightly lower
[1]; [4]
  Piglet index: significantly increased
  farrowing rate: significantly increased
  pregnancy rate: significantly increased
[1]; [5]
  Healthy litter size: significantly higher
  number born alive: significantly higher
[1]; [6]
  Healthy litter size: increasing trend
  number born alive: increasing trend
[1]; Example 3, treatment groups with different doses, compared with batch farrowing with FTAI
  estrus rate: no significant difference
[1]; [7]
  Delivery rate (%): 88.00^b %
  Estrus rate (%): 92.00%
  Healthy litter size: 12.12 ± 0.32^b
  Live litter size: 12.44 ± 0.30^b
  Piglet index: 1094
  Pregnancy rate (%): 92.00^b %
  Stillborn + mummy: 1.80 ± 0.22
  Total number born litter size: 13.96 ± 0.30
  Weak litter: 0.24 ± 0.10
[1]; [8]
  Delivery rate (%): 83.33^b %
  Estrus rate (%): 93.75%
  Healthy litter size: 11.72 ± 0.43^a
  Live litter size: 12.00 ± 0.45^a
  Piglet index: 1000
  Pregnancy rate (%): 95.83^b %
  Stillborn + mummy: 1.56 ± 0.16
  Total number born litter size: 13.76 ± 0.62
  Weak litter: 0.28 ± 0.09
[1]; [9]
  Delivery rate (%): 81.48^b %
  Estrus rate (%): 88.89%
  Healthy litter size: 11.76 ± 0.37^a
  Live litter size: 12.04 ± 0.42^a
  Piglet index: 981
  Pregnancy rate (%): 85.19^b %
  Stillborn + mummy: 1.88 ± 0.39
  Total number born litter size: 14.04 ± 0.53
  Weak litter: 0.40 ± 0.10
[1]; per 100 gilts, method of the disclosure versus batch farrowing with FTAI
  live piglets (weaned piglets) increased by every 100 gilts: 190 live piglets
[2]; compared with batch farrowing with FTAI group
  Enpp2, Lpar3 and ptgs2 mRNA levels in the uteri: significantly higher
[2]; compared with natural estrus group
  Enpp2, Lpar3 and ptgs2 mRNA levels in the uteri: no significant difference
